Test results published in EP2931723B1, “NEW BICYCLIC COMPOUNDS AND THEIR USE AS ANTIBACTERIAL AGENTS AND -LACTAMASE INHIBITORS” (Fedora Pharmaceuticals Inc., priority 2012, dated 2014).

Columns and labels:
Experiment in all cases: MIC, antibacterial and synergistic activity
Type in all cases: cell-based
K. pneumo JMI 2674 = K. pneumo JMI 2674 (CTX-M15 (ESBL)); for MIC Aztreonam + inhibitor: Aztreonam + inhibitor at 4 µg/mL; for MIC Ceftazidime + inhibitor: Ceftazidime + inhibitor at 4 µg/mL; for MIC Meropenem + inhibitor: Meropenem + inhibitor at 4 µg/mL
In short: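 Antibacterial activity was assessed as minimum inhibitory concentrations against a β-lactamase-producing bacterial strain. Each test inhibitor was combined with an antibiotic, with the inhibitor held at a fixed 4 µg/mL, to determine whether it acted synergistically and restored the antibiotic's effect against the resistant organism.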

E. coli JMI 10767 = E. coli JMI 10767 (Wt); for MIC Aztreonam + inhibitor: Aztreonam + inhibitor at 4 µg/mL; for MIC Ceftazidime + inhibitor: Ceftazidime + inhibitor at 4 µg/mL
Method: (§1) In the Tables 10 - 12, compounds herein disclosed were tested in combination with various antibiotics against metallo β-lactamase producing bacteria. Table 3: Synergy of the inhibitor Ex. 1 (4 µg/mL) in combination with antibiotics

E. coli JMI 2671 = conditions: for MIC Aztreonam + inhibitor / MIC Ceftazidime + inhibitor / MIC Meropenem + inhibitor: E. coli JMI 2671 (VIM-19 (Cpase)); for MIC Aztreonam + inhibitor: Aztreonam + inhibitor at 4 µg/mL; for MIC Ceftazidime + inhibitor: Ceftazidime + inhibitor at 4 µg/mL; for MIC Meropenem + inhibitor: Meropenem + inhibitor at 4 µg/mL; for MIC: Escherichia coli, JMI2671, E. coli JMI 2671 (VIM-19 (Cpase)), substance alone
In short: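 Read-out is the MIC of each antibiotic with 4 µg/mL inhibitor present, in metallo β-lactamase-producing strains.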

P. aerug JMI 2686 = P. aerug JMI 2686 (KPC-2 (Cpase)); for MIC Aztreonam + inhibitor: Aztreonam + inhibitor at 4 µg/mL; for MIC Ceftazidime + inhibitor: Ceftazidime + inhibitor at 4 µg/mL; for MIC Meropenem + inhibitor: Meropenem + inhibitor at 4 µg/mL
In short: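 This antibacterial synergy assay measured the minimum inhibitory concentration of antibiotics combined with the disclosed inhibitor compounds. The inhibitor was held at 4 µg/mL throughout. The aim was to see whether the added compound strengthened the antibiotic's action against the tested bacteria.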

E. coli JMI 10770 [1] = conditions: E. coli JMI 10770 (CTX-M15 (Hyper ESBL)); for MIC Aztreonam + inhibitor: Aztreonam + inhibitor at 4 µg/mL; for MIC Ceftazidime + inhibitor: Ceftazidime + inhibitor at 4 µg/mL; for MIC Meropenem + inhibitor: Meropenem + inhibitor at 4 µg/mL
Method: as §1

P. aerug JMI 149 = P. aerug JMI 149 (Bla+++D+); for MIC Aztreonam + inhibitor: Aztreonam + inhibitor at 4 µg/mL; for MIC Ceftazidime + inhibitor: Ceftazidime + inhibitor at 4 µg/mL; for MIC Meropenem + inhibitor: Meropenem + inhibitor at 4 µg/mL; for MIC: substance alone, read-out: MIC
E. cloacae JMI 36 = E. cloacae JMI 36 (P99); for MIC Aztreonam + inhibitor: Aztreonam + inhibitor at 4 µg/mL; for MIC Ceftazidime + inhibitor: Ceftazidime + inhibitor at 4 µg/mL; for MIC Meropenem + inhibitor: Meropenem + inhibitor at 4 µg/mL; for MIC: Enterobacter cloacae, JMI36, substance alone, read-out: MIC
E. coli JMI 10770 [2] = conditions: Escherichia coli, JMI10770; E. coli JMI 10770 (CTX-M15 (Hyper ESBL)); substance alone
K. pneumo JMI 2681 = K. pneumo JMI 2681 (Oxa-48 (Cpase)); for MIC Aztreonam + inhibitor: Aztreonam + inhibitor at 4 µg/mL; for MIC Ceftazidime + inhibitor: Ceftazidime + inhibitor at 4 µg/mL; for MIC Meropenem + inhibitor: Meropenem + inhibitor at 4 µg/mL; for MIC: substance alone, read-out: MIC

Structure (SMILES)	MIC Aztreonam + inhibitor (K. pneumo JMI 2674)	MIC Ceftazidime + inhibitor (K. pneumo JMI 2674)	MIC Meropenem + inhibitor (K. pneumo JMI 2674)	MIC Aztreonam + inhibitor (E. coli JMI 10767)	MIC Ceftazidime + inhibitor (E. coli JMI 10767)	MIC Aztreonam + inhibitor (E. coli JMI 2671)	MIC Ceftazidime + inhibitor (E. coli JMI 2671)	MIC Meropenem + inhibitor (E. coli JMI 2671)	MIC (E. coli JMI 2671)	MIC Aztreonam + inhibitor (P. aerug JMI 2686)	MIC Ceftazidime + inhibitor (P. aerug JMI 2686)	MIC Meropenem + inhibitor (P. aerug JMI 2686)	MIC Aztreonam + inhibitor (E. coli JMI 10770 [1])	MIC Ceftazidime + inhibitor (E. coli JMI 10770 [1])	MIC Meropenem + inhibitor (E. coli JMI 10770 [1])	MIC Aztreonam + inhibitor (P. aerug JMI 149)	MIC Ceftazidime + inhibitor (P. aerug JMI 149)	MIC Meropenem + inhibitor (P. aerug JMI 149)	MIC (P. aerug JMI 149)	MIC Aztreonam + inhibitor (E. cloacae JMI 36)	further results
O=C(NNC(=O)[C@H]1CC[C@H]2CN1C(=O)N2OS(=O)(=O)O)C1CC1 (stereo in doubt) [Ex. 7, (2R,5S)-N'-(cyclopropylcarbonyl)-7-oxo-6-(sulfooxy)-1,6-diazabicyclo[3.2.1]octane-2-carbohydrazide]	≤0.062 µg/mL	≤0.25 µg/mL	0.125 µg/mL	≤0.062 µg/mL	≤0.25 µg/mL	≤0.062 µg/mL	0.5 µg/mL	0.5 µg/mL	8 µg/mL	>4 µg/mL	>16 µg/mL	>2 µg/mL	≤0.062 µg/mL	≤0.25 µg/mL	≤0.0312 µg/mL	>4 µg/mL	>16 µg/mL	>2 µg/mL	> 16 µg/mL	0.125 µg/mL	MIC Ceftazidime + inhibitor (E. cloacae JMI 36): 0.5 µg/mL; MIC Meropenem + inhibitor (E. cloacae JMI 36): 0.125 µg/mL; MIC (E. cloacae JMI 36): > 16 µg/mL; MIC (E. coli JMI 10770 [2]): 8 µg/mL; MIC Aztreonam + inhibitor (K. pneumo JMI 2681): 0.25 µg/mL; MIC Ceftazidime + inhibitor (K. pneumo JMI 2681): 0.5 µg/mL; MIC Meropenem + inhibitor (K. pneumo JMI 2681): 0.25 µg/mL; MIC (K. pneumo JMI 2681): > 16 µg/mL
O=C(NNC(=O)[C@H]1CC[C@H]2CN1C(=O)N2OS(=O)(=O)O)C1CNC1 (stereo in doubt) [Ex. 9, (2R,5S)-N'-(azetidin-3-ylcarbonyl)-7-oxo-6-(sulfooxy)-1,6-diazabicyclo[3.2.1]octane-2-carbohydrazide]	0.125 µg/mL	≤0.25 µg/mL	0.06 µg/mL	≤0.06 µg/mL	≤0.25 µg/mL	≤0.06 µg/mL	1 µg/mL	0.125 µg/mL	> 16 µg/mL	>4 µg/mL	>16 µg/mL	>2 µg/mL	≤0.06 µg/mL	≤0.25 µg/mL	≤0.03 µg/mL	>4 µg/mL	16 µg/mL	0.5 µg/mL	16 µg/mL	0.25 µg/mL	MIC Ceftazidime + inhibitor (E. cloacae JMI 36): ≤0.25 µg/mL; MIC Meropenem + inhibitor (E. cloacae JMI 36): 0.06 µg/mL; MIC (E. cloacae JMI 36): > 16 µg/mL; MIC (E. coli JMI 10770 [2]): > 16 µg/mL; MIC Aztreonam + inhibitor (K. pneumo JMI 2681): 0.25 µg/mL; MIC Ceftazidime + inhibitor (K. pneumo JMI 2681): ≤0.25 µg/mL; MIC Meropenem + inhibitor (K. pneumo JMI 2681): >2 µg/mL; MIC (K. pneumo JMI 2681): > 16 µg/mL
O=C(NO[C@H]1CCNC1)[C@@H]1CC[C@@H]2CN1C(=O)N2OS(=O)(=O)O [Ex. 1, (2S,5R)-7-Oxo-N-[(3S)-pyrrolidin-3-yloxy]-6-(sulfooxy)-1,6-diazabicyclo[3.2.1]octane-2-carboxamide]	≤.062 µg/mL	≤0.25 µg/mL	0.062 µg/mL	≤.062 µg/mL	≤0.25 µg/mL	≤.062 µg/mL	2 µg/mL	2 µg/mL	4 µg/mL	>4 µg/mL	16 µg/mL	>2 µg/mL	≤.062 µg/mL	≤0.25 µg/mL	≤.031 µg/mL	>4 µg/mL	4 µg/mL	0.5 µg/mL	> 16 µg/mL	0.25 µg/mL	MIC Ceftazidime + inhibitor (E. cloacae JMI 36): 1 µg/mL; MIC Meropenem + inhibitor (E. cloacae JMI 36): 0.062 µg/mL; MIC (E. cloacae JMI 36): > 16 µg/mL; MIC (E. coli JMI 10770 [2]): 8 µg/mL; MIC Aztreonam + inhibitor (K. pneumo JMI 2681): 4 µg/mL; MIC Ceftazidime + inhibitor (K. pneumo JMI 2681): 4 µg/mL; MIC Meropenem + inhibitor (K. pneumo JMI 2681): >2 µg/mL; MIC (K. pneumo JMI 2681): > 16 µg/mL
O=C(NO[C@H]1CCCNC1)[C@@H]1CC[C@@H]2CN1C(=O)N2OS(=O)(=O)O [Ex. 2, (2S,5R)-7-Oxo-N-[(3S)-piperidin-3-yloxy] -6-(sulfooxy)-1,6-diazabicyclo[3.2.1]octane-2-carboxamide]	0.125 µg/mL	≤0.25 µg/mL	0.125 µg/mL	≤.062 µg/mL	≤0.25 µg/mL	≤.062 µg/mL	0.5 µg/mL	0.125 µg/mL	> 16 µg/mL	>4 µg/mL	16 µg/mL	>2 µg/mL	≤.062 µg/mL	≤0.25 µg/mL	≤.031 µg/mL	>4 µg/mL	4 µg/mL	0.5 µg/mL	> 16 µg/mL	0.125 µg/mL	MIC Ceftazidime + inhibitor (E. cloacae JMI 36): ≤0.25 µg/mL; MIC Meropenem + inhibitor (E. cloacae JMI 36): 0.125 µg/mL; MIC (E. cloacae JMI 36): > 16 µg/mL; MIC (E. coli JMI 10770 [2]): 4 µg/mL; MIC Aztreonam + inhibitor (K. pneumo JMI 2681): 2 µg/mL; MIC Ceftazidime + inhibitor (K. pneumo JMI 2681): 1 µg/mL; MIC Meropenem + inhibitor (K. pneumo JMI 2681): >2 µg/mL; MIC (K. pneumo JMI 2681): > 16 µg/mL
NCCONC(=O)[C@@H]1CC[C@@H]2CN1C(=O)N2OS(=O)(=O)O [Ex. 3, (2S,5R)-N-(2-Aminoethoxy)-7-oxo-6-(sulfooxy)-1,6-diazabicyclo[3.2.1]octane-2-carboxamide]	0.5 µg/mL	≤0.25 µg/mL	0.125 µg/mL	≤0.062 µg/mL	≤0.25 µg/mL	≤0.062 µg/mL	≤0.25 µg/mL	≤0.0312 µg/mL	2 µg/mL	>4 µg/mL	16 µg/mL	>2 µg/mL	8 µg/mL	2 µg/mL	0.062 µg/mL	>4 µg/mL	4 µg/mL	0.25 µg/mL	> 16 µg/mL	>4 µg/mL	MIC Ceftazidime + inhibitor (E. cloacae JMI 36): 0.5 µg/mL; MIC Meropenem + inhibitor (E. cloacae JMI 36): 0.062 µg/mL; MIC (E. cloacae JMI 36): > 16 µg/mL; MIC (E. coli JMI 10770 [2]): > 16 µg/mL; MIC Aztreonam + inhibitor (K. pneumo JMI 2681): 1 µg/mL; MIC Ceftazidime + inhibitor (K. pneumo JMI 2681): ≤0.25 µg/mL; MIC Meropenem + inhibitor (K. pneumo JMI 2681): 0.5 µg/mL; MIC (K. pneumo JMI 2681): > 16 µg/mL
